Structures are written as SMILES.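 Step 1: Grow cells in 96-well plates. Step 2: Expose to compound for 48 hours at 5 concentrations. Step 3: Interpolate endpoints linearly; if unreached, use highest concentration. GI50: concentration for 50% inhibition of growth. TGI marks complete inhibition of growth.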 Bounds are passed on as bounds.

Some test systems named below: UACC-62 melanoma; SK-OV-3 ovarian; T-47D breast; SK-MEL-28 melanoma; SK-MEL-2 melanoma; HCC-2998 colon; SR leukemia; OVCAR-3 ovarian.
What all share (assay): NCI-60 cell line screen, 48 h

Consider `CC1(C)S[C@@H]2[C@H](NC(=O)C3(N)CCCCC3)C(=O)N2[C@H]1C(=O)O`, for which the TGI in the assay with UACC-62 melanoma, with SK-OV-3 ovarian, with T-47D breast, in the assay on SK-MEL-28 melanoma, with SK-MEL-2 melanoma and in the assay on HCC-2998 colon was above 100 µM throughout. Also, the TGI in the assay with SR leukemia and in the assay on OVCAR-3 ovarian was above 100 µM throughout.

Take `CSc1nc(=O)n(CCC#N)nc1SC`: the TGI was above 100 µM in the assay on UACC-62 melanoma; above 100 µM in the assay with SK-OV-3 ovarian; 62.7 µM in the assay on T-47D breast; 47.8 µM with SK-MEL-28 melanoma; 39.8 µM with SK-MEL-2 melanoma; 31.9 µM in the assay with HCC-2998 colon. In addition, the values for the TGI in the assay with SR leukemia and in the assay on OVCAR-3 ovarian were above 100 µM and 32 µM, respectively.

Take `COc1cc(OCc2cccc(-c3ccc(C(O)c4nccs4)cc3)c2C)cc(OC)c1C=O` (centres undefined): the GI50 is 0.349 µM in the assay with UACC-62 melanoma; 6.07 µM in the assay on SK-OV-3 ovarian; 0.401 µM in the assay with T-47D breast; 2.04 µM in the assay with SK-MEL-28 melanoma; 2.58 µM in the assay on SK-MEL-2 melanoma; 2.28 µM in the assay with HCC-2998 colon. The results for the GI50 in the assay on SR leukemia and with OVCAR-3 ovarian were 1.82 µM and 1.62 µM, respectively. In addition, the TGI stood at 1.92 µM with UACC-62 melanoma; 20.9 µM in the assay with SK-OV-3 ovarian; 6.38 µM in the assay on T-47D breast; 6.57 µM in the assay with SK-MEL-28 melanoma; 8.53 µM in the assay with SK-MEL-2 melanoma; 7.08 µM in the assay on HCC-2998 colon. In addition, the values for the TGI in the assay with SR leukemia and with OVCAR-3 ovarian were 5.08 µM and 4.36 µM, respectively.

Take `C/C=C/C(CC(O)(C(F)(F)F)C(F)(F)F)=N/NC(N)=S`: the TGI in the assay with UACC-62 melanoma, with SK-OV-3 ovarian, in the assay with T-47D breast, in the assay on SK-MEL-28 melanoma, in the assay with SK-MEL-2 melanoma and in the assay on HCC-2998 colon was above 10 µM each time. For the same molecule, the TGI with SR leukemia and in the assay on OVCAR-3 ovarian was above 10 µM each time.

Turning to `COc1cccc(C2CC(C)(O)Oc3cc4c(cc32)OCO4)c1O` (centres undefined), the TGI was above 75.9 µM with UACC-62 melanoma; above 100 µM in the assay with SK-OV-3 ovarian; above 100 µM in the assay on T-47D breast; above 100 µM with SK-MEL-28 melanoma; above 80.4 µM with SK-MEL-2 melanoma; 51.2 µM in the assay on HCC-2998 colon. Moreover, the TGI with SR leukemia is above 51.7 µM; in the assay with OVCAR-3 ovarian it was 42.2 µM.

Consider `NC(=O)/C=C/C(=O)c1c(Cl)cccc1Cl`, for which the GI50 with UACC-62 melanoma was 1.51 µM; in the assay with SK-OV-3 ovarian, 2.6 µM; in the assay with T-47D breast, 0.191 µM; with SK-MEL-28 melanoma it was 1.21 µM; in the assay with SK-MEL-2 melanoma it was 1.83 µM; in the assay with HCC-2998 colon it was 1.51 µM. The GI50 in the assay on SR leukemia is 0.224 µM; in the assay on OVCAR-3 ovarian, 0.533 µM. For the same molecule, the TGI with UACC-62 melanoma turned out to be 2.84 µM; in the assay with SK-OV-3 ovarian, 6.38 µM; in the assay with T-47D breast, 0.408 µM; with SK-MEL-28 melanoma, 2.52 µM; with SK-MEL-2 melanoma, 4.01 µM; in the assay on HCC-2998 colon it was 2.88 µM. Further, the values for the TGI with SR leukemia and in the assay with OVCAR-3 ovarian were 1.37 µM and 1.72 µM, respectively.

On to `O=C(/C=C/c1ccccc1)CCC1C(=O)c2ccccc2C1=O`, for which the TGI in the assay with UACC-62 melanoma, with SK-OV-3 ovarian, in the assay on T-47D breast, in the assay on SK-MEL-28 melanoma, in the assay on SK-MEL-2 melanoma and in the assay with HCC-2998 colon was above 100 µM in each case. Moreover, the TGI in the assay with SR leukemia and with OVCAR-3 ovarian was above 100 µM throughout.

For `CC(C)NC(=O)OCc1c(COC(=O)NC(C)C)c(-c2cc[n+](COC(=O)C3CC3)cc2)n2c1CCC2`, the TGI in the assay with UACC-62 melanoma, in the assay with SK-OV-3 ovarian, with T-47D breast, with SK-MEL-28 melanoma, with SK-MEL-2 melanoma and with HCC-2998 colon was above 100 µM in each case. Further, the TGI in the assay with SR leukemia and with OVCAR-3 ovarian was above 100 µM throughout.

Turning to `N#Cc1c(NC(=O)NCc2ccccc2)sc2c1CCCCC2`, the GI50 in the assay on UACC-62 melanoma was 0.533 µM; with SK-OV-3 ovarian, 0.799 µM; in the assay with T-47D breast, 0.343 µM; in the assay with SK-MEL-28 melanoma, 2.77 µM; with SK-MEL-2 melanoma, 2.27 µM; with HCC-2998 colon, 1.77 µM. For the same molecule, the GI50 with SR leukemia and with OVCAR-3 ovarian was 0.346 µM throughout. For the same molecule, the TGI with UACC-62 melanoma was above 40.2 µM; with SK-OV-3 ovarian, above 100 µM; with T-47D breast, above 100 µM; in the assay with SK-MEL-28 melanoma, above 100 µM; in the assay with SK-MEL-2 melanoma it was above 100 µM; in the assay on HCC-2998 colon, above 28.5 µM. For the same molecule, the TGI in the assay with SR leukemia was above 100 µM; with OVCAR-3 ovarian, 1.61 µM.

For the molecule `O=C(O)COc1ccc2c(=O)c3sc4c(=O)c5ccccc5c(=O)c4c3c(=O)c2c1`, the GI50 was 12 µM in the assay on UACC-62 melanoma; 16.6 µM with SK-OV-3 ovarian; 21.4 µM in the assay with T-47D breast; 8.19 µM in the assay on SK-MEL-28 melanoma; 19.8 µM in the assay on SK-MEL-2 melanoma; 11.2 µM in the assay on HCC-2998 colon. In addition, the GI50 in the assay on SR leukemia is 32.8 µM; in the assay with OVCAR-3 ovarian, 13.5 µM. Further, the TGI in the assay with UACC-62 melanoma came out at 39.4 µM; with SK-OV-3 ovarian it was 43.9 µM; in the assay on T-47D breast, 50.9 µM; in the assay on SK-MEL-28 melanoma, 28.6 µM; with SK-MEL-2 melanoma, 49.3 µM; in the assay with HCC-2998 colon it was 26.7 µM. Moreover, the TGI with SR leukemia was above 100 µM; in the assay with OVCAR-3 ovarian, 33.9 µM.

On to `C/C=C(\C)C(=O)O[C@H]1C=CC(=O)O[C@H]1CCC(=O)[C@H](C)O`, for which the GI50 was 14.1 µM in the assay with UACC-62 melanoma; 36.5 µM in the assay on SK-OV-3 ovarian; 10.4 µM with T-47D breast; 9.9 µM with SK-MEL-28 melanoma; 19.1 µM in the assay on SK-MEL-2 melanoma; 17.1 µM with HCC-2998 colon. The values for the GI50 with SR leukemia and in the assay with OVCAR-3 ovarian were 2.22 µM and 9.58 µM, respectively. The TGI was 27.7 µM in the assay with UACC-62 melanoma; above 100 µM in the assay on SK-OV-3 ovarian; 32.3 µM with T-47D breast; 24.6 µM in the assay with SK-MEL-28 melanoma; 47.3 µM in the assay on SK-MEL-2 melanoma; 32.4 µM in the assay on HCC-2998 colon. Further, the TGI in the assay on SR leukemia is 13.2 µM; in the assay with OVCAR-3 ovarian, 22.3 µM.

In the case of `Nc1ccc([N+](=O)[O-])cc1N=C/C=C/c1ccccc1`, the GI50 is 11.9 µM with UACC-62 melanoma; 26.5 µM with SK-OV-3 ovarian; 15.7 µM in the assay on T-47D breast; 29.7 µM in the assay with SK-MEL-28 melanoma; 28.6 µM in the assay with SK-MEL-2 melanoma; 30.1 µM in the assay with HCC-2998 colon. The GI50 was 3.48 µM in the assay with SR leukemia and 4.95 µM with OVCAR-3 ovarian. Besides, the TGI was above 100 µM in the assay on UACC-62 melanoma; above 100 µM with SK-OV-3 ovarian; 77.7 µM with T-47D breast; above 100 µM in the assay with SK-MEL-28 melanoma; above 100 µM in the assay on SK-MEL-2 melanoma; above 100 µM in the assay on HCC-2998 colon. The TGI is above 100 µM with SR leukemia and 26.8 µM in the assay on OVCAR-3 ovarian.

These data come from PubChem BioAssay (NCI).
